In brackets after ≈: the same amount, converted by molar mass. Entries after “also recorded” stand apart in the source; their conditions may differ.
How the values were obtained:
Clostridium difficile [1] = assay: Survival in liquid ileum medium; format: cell-based; details: within 200 minutes
Bacteroides = assay: Antimicrobial activity in TIM-2 large intestine model; format: cell-based
Lactobacillus = assay: as above; format: cell-based
Bifidobacterium = assay: as above; format: cell-based
Clostridium perfringens = assay: microbe, parasite or virus in culture; format: cell-based; details: 72 h, read-out: MIC, C. perfringens
Lactobacillus casei = assay: MIC on agar plates (MRSA)
[2] = tested on: Lactobacillus acidophilus; assay: Antimicrobial activity in small intestine model TIM-1; format: cell-based; details: 20 μg/ml of sphingolipid; lumen samples plated on Rogosa agar
Enterobacteriaceae = assay: Antimicrobial activity in TIM-2 large intestine model; format: cell-based
[3] = tested on: Lactobacillus acidophilus; assay: MIC on agar plates (MRSA)
Gram-positive bacteria = assay: Antimicrobial activity on agar plates, summary for Gram-positive bacteria; format: cell-based
Clostridium difficile [4] = assay: Antimicrobial activity in TIM-2 large intestine model; format: cell-based
[5] = tested on: Bifidobacterium adolescentis; assay: MIC on agar plates (RCBA); format: cell-based; details: RCBA agar plate, anaerobic, 72 hours at 30° C.
[6] = tested on: Streptococcus suis type 2; assay: MIC on agar plates (TSA)
Pseudomonas aeruginosa = assay: MIC on agar plates (TSA); format: cell-based; details: TSA agar plate, aerobic, 48 hours at 30° C.
[7] = in vivo
Description: (§1) Because the sphingolipids need to be transported together with the food to the small and large intestines to be able to be active there, the transport of phytosphingosine and sphinganine in the stomach and small intestine model TIM-1 was tested. Also, the transport of phytosphingosine in a fistulated pig was tested after the animal had been fed with feed containing phytosphingosine (1 wt. %). In a fistulated pig, the small intestine is uncoupled from the large intestine so that the digested feed at the end of the small intestine can be collected.
To investigate in an in vivo system whether sphingolipids from the food do actually arrive in the large intestine and are not prematurely absorbed or metabolized, pig basic feed to which phytosphingosine (1 wt. %) was added was fed to a fistulated pig.
The feed was prepared by mixing a solution of phytosphingosine in ethanol with the feed and drying it in vacuo. Every hour, the intestinal content (chymus) at the end of the small intestine was separately collected and frozen dry. The dry intestinal contents were then extracted with chloroform/methanol (2:1, v/v). The extracts were then filtered over glass wool and evaporated under a nitrogen flow. The residues were examined for the presence of phytosphingosine, sphingosine, sphinganine and sphingomyelin by means of LC-MS.

Clostridium spp. = assay: MIC on agar plates (RCBA); format: cell-based
[8] = format: in vitro ADME
Description: as §1
To investigate whether sphingolipids from the food are transported through the small intestine without being absorbed or being chemically or enzymatically modified in the small intestine, phytosphingosine and sphinganine were mixed in a standard Tim-1 food and exposed to a TIM-1 treatment. Of each sphingolipid, 5 mg per 100 grams of food (0.005 wt. %) in the food were tested. After starting the TIM-1 digestion processes in the TIM-1 stomach, at the fixed times, lumen samples of 100 grams were taken. Also, dialysate samples were taken from the material which was transported through the semi-permeable TIM-1 membrane. The dialysate samples varied between 1428 and 1122 grams. […] Next to the samples, the exposure time in minutes is given.

[9] = tested on: Lactobacillus acidophilus; assay: Survival in liquid ileum medium; details: within 200 minutes
Lactobacillus sake = assay: MIC on agar plates (MRSA)
Fusobacterium nucleatum = assay: MIC on agar plates (RCBA); format: cell-based; details: RCBA agar plate, anaerobic, 72 hours at 30° C.
Bacillus cereus = assay: MIC on agar plates (TSA)
Clostridium difficile [10] = assay: MIC on agar plates (RCBA); format: cell-based; details: Clostridioides difficile; RCBA agar plate, anaerobic, 72 hours at 30° C.
[11] = tested on: sulfite-reducing Clostridium; assay: Antimicrobial activity in TIM-2 large intestine model
Listeria monocytogenes = assay: MIC on agar plates (TSA)
Salmonella enteritidis = assay: MIC on agar plates (TSA); format: cell-based; details: TSA agar plate, aerobic, 48 hours at 30° C.
Bifidobacterium spp. = assay: MIC on agar plates (RCBA); format: cell-based; details: RCBA agar plate, anaerobic, 72 hours at 30° C.
Bacteroides fragilis = assay: MIC on agar plates (RCBA); format: cell-based; details: RCBA agar plate, anaerobic, 72 hours at 30° C.
Clostridium difficile [12] = assay: Antimicrobial activity in small intestine model TIM-1; format: cell-based; details: 20 μg/ml of sphingolipid; lumen samples plated on Clostridium difficile agar
Leuconostoc carnosum = assay: MIC on agar plates (MRSA)
Enterococcus = assay: Antimicrobial activity in TIM-2 large intestine model; format: cell-based
Enterococcus hirae = assay: MIC on agar plates (MRSA)
[13] = rat, in vivo; cited from earlier work
bacteria tested = assay: Antimicrobial activity on agar plates, summary for the bacteria tested; format: cell-based; details: agar plates
[14] = ileum medium, absence of bile, 10 and 50 μg/ml
[15] = 60 min, 5 mg per 100 grams of food
[16] = 120 min, 5 mg per 100 grams of food
[17] = 180 min, 5 mg per 100 grams of food
[18] = 240 min, 5 mg per 100 grams of food
[19] = MRSA agar plate, anaerobic, 72 hours at 30° C.
[20] = TSA agar plate, aerobic, 48 hours at 30° C.

## CCCCCCCCCCCCCC[C@@H](O)[C@@H](O)[C@@H](N)CO [Phytosphingosine, phytosphingosine]
Clostridium difficile [1]; [14]
  Killing of Clostridium difficile: virtually completely killed
Clostridium difficile [1]; liquid cultures, 50 ppm
  Killing of Clostridium difficile: for the larger part killed
Bacteroides; 10 μg/ml
  Killing of other bacteria: Bacteroides: no significant killing
Bacteroides; 50 μg/ml
  Bacteroides decreases by a factor of: 10
Lactobacillus; 10 μg/ml
  Killing of other bacteria: Lactobacillus: no significant killing
Lactobacillus; 50 μg/ml
  Lactobacillus decreases by a factor of: 24
Bifidobacterium; 10 μg/ml
  Killing of other bacteria: Bifidobacterium: no significant killing
Bifidobacterium; 50 μg/ml
  Bifidobacterium decreases by a factor of: 55
Clostridium perfringens
  MIC: 5.9 µg/mL (≈ 18.6 µM)
Lactobacillus casei; Lacticaseibacillus casei, 72 h, read-out: MIC, L. casei
  MIC: > 36.5 µg/mL
[2]
  Antimicrobial activity against Lactobacillus acidophilus in TIM-1: no demonstrable antimicrobial activity
Enterobacteriaceae; 10 μg/ml
  Killing of other bacteria: Enterobacteriaceae: no significant killing
Enterobacteriaceae; 50 μg/ml
  Enterobacteriaceae decrease by a factor of: 77
[3]; Lactobacillus acidophilus, 72 h, read-out: MIC, L. acidophilus
  MIC: > 36.5 µg/mL
Gram-positive bacteria
  Antimicrobial activity against Gram-positive bacteria: killed; also recorded: strong antimicrobial activity
Clostridium difficile [4]; TIM-2, 10 μg/ml
  Killing of C. difficile: no significant killing
Clostridium difficile [4]; TIM-2, 50 μg/ml, within 12 hours
  Decrease of C. difficile: 550 fold
Clostridium difficile [4]; TIM-2 large intestine model
  Selectivity of antimicrobial activity against Clostridium difficile: selective antimicrobial activity
[5]; Bifidobacterium adolescentis, read-out: MIC, B. adolescentis
  MIC: 8 µg/mL (≈ 25.2 µM)
[6]; Streptococcus suis, TYPE2, 48 h, read-out: MIC, S. suis type 2
  MIC: 6.3 µg/mL (≈ 19.8 µM)
Pseudomonas aeruginosa; Pseudomonas aeruginosa, read-out: MIC, P. aeruginosa
  MIC: > 731 µg/mL
[7]
  Health of the pig: remained healthy
[7]; pig
  Maximum phytosphingosine in intestinal contents at the end of the small intestine: 76 μg/g of dry intestinal contents
  Time from which phytosphingosine leaves the small intestine: from two hours after feeding
  Time of the maximum after feeding: 9 h
Clostridium spp.; Clostridium, 72 h, read-out: MIC, C. spp.
  MIC: 1.1 µg/mL (≈ 3.46 µM)
[8]
  Transport through the TIM-1 system: transported to the large intestine to a sufficient extent
[8]; 5 mg per 100 grams of food
  Concentration in TIM-1 sample: Dialysate ileum 0-120′: 0 ng/mL
  Concentration in TIM-1 sample: Dialysate ileum 120-240′: 0 ng/mL
  Concentration in TIM-1 sample: Dialysate jejunum 0-120′: 0 ng/mL
  Concentration in TIM-1 sample: Dialysate jejunum 120-240′: 0 ng/mL
  Concentration in TIM-1 sample: Food: 5190 ng/mL
  Concentration in TIM-1 sample: Residue jejunum/ileum + dialysis fluid: 3320 ng/mL
  Concentration in TIM-1 sample: Residue stomach/duodenum + dialysis fluid: 1030 ng/mL
  Share of the amount used found in the samples (rough mass balance): approx. 20%
[8]; [15]
  Concentration in TIM-1 sample: Lumen ileum 60′: 200 ng/mL
  Concentration in TIM-1 sample: Lumen jejunum 60′: 1470 ng/mL
[8]; [16]
  Concentration in TIM-1 sample: Lumen ileum 120′: 2230 ng/mL
  Concentration in TIM-1 sample: Lumen jejunum 120′: 1790 ng/mL
[8]; [17]
  Concentration in TIM-1 sample: Lumen ileum 180′: 2220 ng/mL
  Concentration in TIM-1 sample: Lumen jejunum 180′: 3410 ng/mL
[8]; [18]
  Concentration in TIM-1 sample: Lumen ileum 240′: 1960 ng/mL
  Concentration in TIM-1 sample: Lumen jejunum 240′: 4100 ng/mL
[9]; [14]
  Killing of Lactobacillus acidophilus: virtually completely killed
[9]; liquid cultures, 50 ppm
  Killing of Lactobacillus acidophilus: for the larger part killed
Lactobacillus sake; Latilactobacillus sakei, 72 h, read-out: MIC, L. sake
  MIC: 2.2 µg/mL (≈ 6.93 µM)
Fusobacterium nucleatum; Fusobacterium nucleatum, read-out: MIC, F. nucleatum
  MIC: < 6.3 µg/mL
Bacillus cereus; Bacillus cereus, 48 h, read-out: MIC, B. cereus
  MIC: 6.3 µg/mL (≈ 19.8 µM)
Clostridium difficile [10]
  MIC: 5.7 µg/mL (≈ 18 µM)
[11]; 10 μg/ml
  Killing of other bacteria: sulfite-reducing clostridia: no significant killing
[11]; 50 μg/ml
  Sulfite-reducing Clostridium decreases by a factor of: 36
Listeria monocytogenes; Listeria monocytogenes, 48 h, read-out: MIC, L. monocytogenes
  MIC: 6.3 µg/mL (≈ 19.8 µM)
Salmonella enteritidis; Salmonella enterica, ENTERITIDIS, read-out: MIC, S. enteritidis
  MIC: > 731 µg/mL
Bifidobacterium spp.; Bifidobacterium, read-out: MIC, Bif. spp.
  MIC: 0.9 µg/mL (≈ 2.83 µM)
Bacteroides fragilis; Bacteroides fragilis, read-out: MIC, B. fragilis
  MIC: 2.1 µg/mL (≈ 6.61 µM)
Clostridium difficile [12]
  Antimicrobial activity against Clostridium difficile in TIM-1: no demonstrable antimicrobial activity
Leuconostoc carnosum; 72 h, read-out: MIC, L. carnosum
  MIC: < 0.3 µg/mL
Enterococcus; 10 μg/ml
  Killing of other bacteria: Enterococcus: no significant killing
Enterococcus; 50 μg/ml
  Enterococcus decreases by a factor of: 5
Enterococcus hirae; Enterococcus hirae, 72 h, read-out: MIC, E. hirae
  MIC: > 36.5 µg/mL

## sphingomyelin
[13]
  Share of the sphingomyelin fed that is found in the feces: approximately 25%
Bacteria tested
  Inhibition of the bacteria tested: do not inhibit any of the bacteria tested
Lactobacillus casei; [19]
  MIC, L. casei: >731 µg/mL
[3]; anaerobic, 72 hours at 30° C.
  MIC, L. acidophilus: >731 µg/mL
[5]
  MIC, B. adolescentis: >731 µg/mL
[6]; [20]
  MIC, S. suis type 2: >731 µg/mL
Pseudomonas aeruginosa
  MIC, P. aeruginosa: >731 µg/mL
[7]; pig
  Presence in the intestinal contents at the end of the small intestine: larger amounts
Clostridium spp.; RCBA agar plate, anaerobic, 72 hours at 30° C.
  MIC, C. spp.: >731 µg/mL
Lactobacillus sake; anaerobic, 72 hours at 30° C.
  MIC, L. sake: >731 µg/mL
Fusobacterium nucleatum
  MIC, F. nucleatum: >731 µg/mL
Bacillus cereus; [20]
  MIC, B. cereus: >731 µg/mL
Listeria monocytogenes; [20]
  MIC, L. monocytogenes: >731 µg/mL
Salmonella enteritidis
  MIC, S. enteritidis: >731 µg/mL
Bifidobacterium spp.
  MIC, Bif. spp.: >731 µg/mL
Bacteroides fragilis
  MIC, B. fragilis: >731 µg/mL
Leuconostoc carnosum; agar plate, anaerobic, 72 hours at 30° C.
  MIC, L. carnosum: >731 µg/mL
Enterococcus hirae; [19]
  MIC, E. hirae: >731 µg/mL

— patent US8703172B2, “Sphingolipids for improvement of the composition of the intestinal flora” (Nederlandse Organizatie voor …, priority 2003, dated 2014)
